Experimental data published in publication PMC11189555, “Aryl amino acetamides prevent Plasmodium falciparum ring development via targeting the lipid-transfer protein PfSTART1” (Nature Communications, 2024).
pEC50: −log10 of the molar value. Read-outs that look alike come from different tables or passages of the source.

Columns and labels:
[1] = system: PopE-F10 M-833 resistant clone (PfSTART1 N330K); assay: Growth inhibition assay (72 h, LDH activity); type: cell-based, Plasmodium falciparum
Protocol: The drug was then removed, and parasites were allowed to recover. Another cycle of drug treatment (3 μM M-833) was then resumed. The resistant lines were cloned out by limiting dilution (diluting the culture into a 96-well plate to achieve an average of ~0.3 parasites per well), prior to growth inhibition assays and genomic DNA (gDNA) extraction (DNeasy Blood and Tissue kit (Qiagen)[18].
(§1) Parasite growth assays with inhibitory compounds were performed as per[11] and are fully described in the Supplementary Information. […]
(§2) Growth inhibition assays. Synchronised ring-stage parasites (0.3-0.6% parasitemia, 2% haematocrit) were grown for 72 h in a serial-dilution of the compound under […]
(§3) and compound 4. Note that M-833 was first purchased from MolPort (MolPort -002-267-916) then made in-house at WEHI: the differences observed in EC50s across experiments are attributed to the different batches of M -833. For some experiments, 0, 0.25 or 2.5 mM of glucosamine (GlcN) was also added. Experiments were set up in technical duplicates or triplicates. Following a freeze -thaw cycle, lactate dehydrogenase (LDH) activity was assessed as an indicator of parasite growt h 5. 30 μL of parasite culture was incubated for 30 min in the dark with 75 μL Malstat mixture (0.1 M Tris pH 9.0, 20 g/L lactic acid, pH 7.5, 0.2% Triton-X100, 0.5 g/L acetylpyridine adenine dinucleotide (APAD, Sigma), 200 μg/mL nitroblue tetrazolium (NBT; Sigma), 1 μg/mL phenozine ethosulfate (PES; Sigma)). Absorbance was then measured at 650 nm, transformed using the formula below, plotted against the logarithm of the concentrations, and a non-linear regression (log(inhibitor) vs. response, variable slope) was calculated using GraphPad Prism to assess the half-inhibitory […]
(§4) Growth inhibition % = (1 − average(sample)− average(uRBC)) ∗ 100 […]
(§5) The DMSO samples were also used to assess growth of parasite in the presence of 0.25 and 2.5 mM GlcN (normalised by DMSO in 0 mM GlcN). […]

[2] = system: 3D7 P. falciparum parasites; assay: Growth inhibition assay (72 h, LDH activity); type: cell-based, Plasmodium falciparum; settings: for pEC50: Plasmodium falciparum
Protocol: as §1, §2, §3, §4, §5

## O=C(CNc1ccc(Cl)c(S(=O)(=O)N2CCOCC2)c1)Nc1ccc(F)c(Cl)c1 [compound 2, reference compound]
[1]; Plasmodium falciparum, 72 h, Supplementary Table 1, PopE-F10 (N330K)
  pEC50: < 4.70
[1]; PopE-F10 (N330K), Fig 4B
  resistance of the line compared with 3D7: highly resistant
[1]; PopE-F10, 3.04832 nM, biological replicate 1
  (av-uRBC) / (DMSO-uRBC) x100: 114.401
[1]; PopE-F10, 3.04832 nM, biological replicate 2
  (av-uRBC) / (DMSO-uRBC) x100: 112.198
[1]; PopE-F10, 3.04832 nM, biological replicate 3
  (av-uRBC) / (DMSO-uRBC) x100: 118.159
[1]; PopE-F10, 9.14495 nM, biological replicate 1
  (av-uRBC) / (DMSO-uRBC) x100: 113.83
[1]; PopE-F10, 9.14495 nM, biological replicate 2
  (av-uRBC) / (DMSO-uRBC) x100: 112.634
[1]; PopE-F10, 9.14495 nM, biological replicate 3
  (av-uRBC) / (DMSO-uRBC) x100: 115.839
[1]; PopE-F10, 27.4348 nM, biological replicate 1
  (av-uRBC) / (DMSO-uRBC) x100: 109.84
[1]; PopE-F10, 27.4348 nM, biological replicate 2
  (av-uRBC) / (DMSO-uRBC) x100: 113.332
[1]; PopE-F10, 27.4348 nM, biological replicate 3
  (av-uRBC) / (DMSO-uRBC) x100: 126.539
[1]; PopE-F10, 82.3045 nM, biological replicate 1
  (av-uRBC) / (DMSO-uRBC) x100: 112.064
[1]; PopE-F10, 82.3045 nM, biological replicate 2
  (av-uRBC) / (DMSO-uRBC) x100: 115.064
[1]; PopE-F10, 82.3045 nM, biological replicate 3
  (av-uRBC) / (DMSO-uRBC) x100: 112.119
[1]; PopE-F10, 246.914 nM, biological replicate 1
  (av-uRBC) / (DMSO-uRBC) x100: 108.998
[1]; PopE-F10, 246.914 nM, biological replicate 2
  (av-uRBC) / (DMSO-uRBC) x100: 111.627
[1]; PopE-F10, 246.914 nM, biological replicate 3
  (av-uRBC) / (DMSO-uRBC) x100: 122.435
[1]; PopE-F10, 740.741 nM, biological replicate 1
  (av-uRBC) / (DMSO-uRBC) x100: 107.242
[1]; PopE-F10, 740.741 nM, biological replicate 2
  (av-uRBC) / (DMSO-uRBC) x100: 111.201
[1]; PopE-F10, 740.741 nM, biological replicate 3
  (av-uRBC) / (DMSO-uRBC) x100: 127.133
[1]; PopE-F10, 2222.22 nM, biological replicate 1
  (av-uRBC) / (DMSO-uRBC) x100: 102.224
[1]; PopE-F10, 2222.22 nM, biological replicate 2
  (av-uRBC) / (DMSO-uRBC) x100: 112.371
[1]; PopE-F10, 2222.22 nM, biological replicate 3
  (av-uRBC) / (DMSO-uRBC) x100: 122.627
[1]; PopE-F10, 6666.67 nM, biological replicate 1
  (av-uRBC) / (DMSO-uRBC) x100: 102.39
[1]; PopE-F10, 6666.67 nM, biological replicate 2
  (av-uRBC) / (DMSO-uRBC) x100: 105.46
[1]; PopE-F10, 6666.67 nM, biological replicate 3
  (av-uRBC) / (DMSO-uRBC) x100: 111.965
[1]; PopE-F10, 20000 nM, biological replicate 1
  (av-uRBC) / (DMSO-uRBC) x100: 70.532
[1]; PopE-F10, 20000 nM, biological replicate 2
  (av-uRBC) / (DMSO-uRBC) x100: 73.7076
[1]; PopE-F10, 20000 nM, biological replicate 3
  (av-uRBC) / (DMSO-uRBC) x100: 50.604
[1]; Supplementary Table 1, EC50 on PopE-F10 vs 3D7
  Fold change compared to 3D7: > 117 fold
[2]; 3D7, conc. 3.04832 nM, Biological replicate 1 (2021-10-25)
  (av-uRBC) / (DMSO-uRBC) x100: 101.583
[2]; 3D7, conc. 3.04832 nM, Biological replicate 2 (2021-11-03)
  (av-uRBC) / (DMSO-uRBC) x100: 104.234
[2]; 3D7, conc. 3.04832 nM, Biological replicate 3 (2021-11-11)
  (av-uRBC) / (DMSO-uRBC) x100: 118.798
[2]; 3D7, conc. 9.14495 nM, Biological replicate 1 (2021-10-25)
  (av-uRBC) / (DMSO-uRBC) x100: 98.3522
[2]; 3D7, conc. 9.14495 nM, Biological replicate 2 (2021-11-03)
  (av-uRBC) / (DMSO-uRBC) x100: 106.026
[2]; 3D7, conc. 9.14495 nM, Biological replicate 3 (2021-11-11)
  (av-uRBC) / (DMSO-uRBC) x100: 112.58
[2]; 3D7, conc. 27.4348 nM, Biological replicate 1 (2021-10-25)
  (av-uRBC) / (DMSO-uRBC) x100: 92.7855
[2]; 3D7, conc. 27.4348 nM, Biological replicate 2 (2021-11-03)
  (av-uRBC) / (DMSO-uRBC) x100: 105.906
[2]; 3D7, conc. 27.4348 nM, Biological replicate 3 (2021-11-11)
  (av-uRBC) / (DMSO-uRBC) x100: 106.329
[2]; 3D7, conc. 82.3045 nM, Biological replicate 1 (2021-10-25)
  (av-uRBC) / (DMSO-uRBC) x100: 76.9881
[2]; 3D7, conc. 82.3045 nM, Biological replicate 2 (2021-11-03)
  (av-uRBC) / (DMSO-uRBC) x100: 101.625
[2]; 3D7, conc. 82.3045 nM, Biological replicate 3 (2021-11-11)
  (av-uRBC) / (DMSO-uRBC) x100: 81.2348
[2]; 3D7, conc. 246.914 nM, Biological replicate 1 (2021-10-25)
  (av-uRBC) / (DMSO-uRBC) x100: 38.3866
[2]; 3D7, conc. 246.914 nM, Biological replicate 2 (2021-11-03)
  (av-uRBC) / (DMSO-uRBC) x100: 48.8275
[2]; 3D7, conc. 246.914 nM, Biological replicate 3 (2021-11-11)
  (av-uRBC) / (DMSO-uRBC) x100: 35.6638
[2]; 3D7, conc. 740.741 nM, Biological replicate 1 (2021-10-25)
  (av-uRBC) / (DMSO-uRBC) x100: 12.6522
[2]; 3D7, conc. 740.741 nM, Biological replicate 2 (2021-11-03)
  (av-uRBC) / (DMSO-uRBC) x100: 13.3573
[2]; 3D7, conc. 740.741 nM, Biological replicate 3 (2021-11-11)
  (av-uRBC) / (DMSO-uRBC) x100: 9.565
[2]; 3D7, conc. 2222.22 nM, Biological replicate 1 (2021-10-25)
  (av-uRBC) / (DMSO-uRBC) x100: 9.471
[2]; 3D7, conc. 2222.22 nM, Biological replicate 2 (2021-11-03)
  (av-uRBC) / (DMSO-uRBC) x100: 10.1641
[2]; 3D7, conc. 2222.22 nM, Biological replicate 3 (2021-11-11)
  (av-uRBC) / (DMSO-uRBC) x100: 7.82
[2]; 3D7, conc. 6666.67 nM, Biological replicate 1 (2021-10-25)
  (av-uRBC) / (DMSO-uRBC) x100: 8.762
[2]; 3D7, conc. 6666.67 nM, Biological replicate 2 (2021-11-03)
  (av-uRBC) / (DMSO-uRBC) x100: 10.3401
[2]; 3D7, conc. 6666.67 nM, Biological replicate 3 (2021-11-11)
  (av-uRBC) / (DMSO-uRBC) x100: 6.881
[2]; 3D7, conc. 20000 nM, Biological replicate 1 (2021-10-25)
  (av-uRBC) / (DMSO-uRBC) x100: 8.397
[2]; 3D7, conc. 20000 nM, Biological replicate 2 (2021-11-03)
  (av-uRBC) / (DMSO-uRBC) x100: 8.683
[2]; 3D7, conc. 20000 nM, Biological replicate 3 (2021-11-11)
  (av-uRBC) / (DMSO-uRBC) x100: 3.998
[2]; 3D7, 72 h, Supplementary Table 1, 3D7, 72 h, read-out: EC50
  pEC50: 6.77
[2]; 3D7, Fig 4A, 3D7 parasites, read-out: Pf 3D7 EC50 (SD)
  pEC50: 6.85
